Where two headings read alike, the source gives them in different places.
System: RS4;11 cells
Assay: RS4;11 cell viability assay (CellTiter Glo);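 also: acute lymphoblastic leukemia line RS4,11, EC50 derived from percentage of viable cells after treatment relative to untreated controls, cell killing taken as a measure of Bcl-2 inhibition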
Type: cell-based, human
Details: Homo sapiens, read-out: RS4
[1] = RS4-11, 48 h, 50,000 cells per well, 10% human serum, 48 hours, 11 EC50 Values
[2] = RS4-11, Table 5, direct comparison Z=N with corresponding analogs Z=C, 11 EC50

Description: The acute lymphoblastic leukemia (ALL) cell line RS4;11 was used as the primary human cell line to assess the cellular activity of Bcl-2 selective agents in vitro and their efficacy in vivo.
Cell cytotoxicity EC50 values were assessed using CellTiter Glo (Promega) according to the manufacturer's recommendations. The EC50 values were determined as a percentage of viable cells following treatment compared to the untreated control cells.

How did the EC50 [1] turn out when CC1(C)CCC(CN2CCN(c3ccc(C(=O)NS(=O)(=O)c4ccc(OCC5COCCN5C(=O)OC(C)(C)C)c([N+](=O)[O-])c4)c(Oc4cnc5[nH]ccc5c4)c3)CC2)=C(c2ccc(Cl)cc2)C1 (stereo not drawn) [Example 77, tert-butyl 3-{[4-({[4-(4-{[2-(4-chlorophenyl)-4,4-dimethylcyclohex-1-en-1-yl]methyl}piperazin-1-yl)-2-(1H-pyrrolo[2,3-b]pyridin-5-yloxy)benzoyl]amino}sulfonyl)-2-nitrophenoxy]methyl}morpholine-4-carboxylate] was run?
The EC50 was 0.762 µM.

How did the EC50 [1] turn out when CC1(C)CCC(CC2CCN(c3ccc(C(=O)NS(=O)(=O)c4cnc(OCC5(O)CCC(F)(F)CC5)c(Cl)c4)c(Oc4cnc5[nH]ccc5c4)c3)CC2)=C(c2ccc(Cl)cc2)C1 [Example 302, N-({5-chloro-6-[(4,4-difluoro-1-hydroxycyclohexyl)methoxy]pyridin-3-yl}sulfonyl)-4-(4-{[2-(4-chlorophenyl)-4,4-dimethylcyclohex-1-en-1-yl]methyl}piperidin-1-yl)-2-(1H-pyrrolo[2,3-b]pyridin-5-yloxy)benzamide] was run?
The EC50 was 0.381 µM.

CN1CCN(Nc2ccc(S(=O)(=O)NC(=O)c3ccc(N4CCN(CC5=C(c6ccc(Cl)cc6)CC(C)(C)OC5)CC4)cc3Oc3cnc4[nH]ccc4c3)cc2[N+](=O)[O-])CC1 [Example 67, 4-(4-{[4-(4-chlorophenyl)-6,6-dimethyl-5,6-dihydro-2H-pyran-3-yl]methyl}piperazin-1-yl)-N-({4-[(4-methylpiperazin-1-yl)amino]-3-nitrophenyl}sulfonyl)-2-(1H-pyrrolo[2,3-b]pyridin-5-yloxy)benzamide] was tested. Which EC50 [1] did it give?
Its EC50 is 0.0495 µM.

Which EC50 [1] does the source give for CC1(C)CC(c2ccc(Cl)cc2)=C(CN2CCN(c3ccc(C(=O)NS(=O)(=O)c4ccc(NCC5CCOCC5)c(C(F)(F)F)c4)c(Oc4cnc5[nH]ccc5c4)c3)CC2)CO1 [Example 42, 4-(4-{[4-(4-chlorophenyl)-6,6-dimethyl-5,6-dihydro-2H-pyran-3-yl]methyl}piperazin-1-yl)-2-(1H-pyrrolo[2,3-b]pyridin-5-yloxy)-N-{[4-[(tetrahydro-2H-pyran-4-ylmethyl)amino]-3-(trifluoromethyl)phenyl]sulfonyl}benzamide] here?
Its EC50 is 0.534 µM.

CC1(C)CCC(CN2CCN(c3ccc(C(=O)NS(=O)(=O)c4cnc(OC[C@@H]5CN(C6CC6)CCO5)c(Cl)c4)c(Oc4cnc5[nH]ccc5c4)c3)CC2)=C(c2ccc(Cl)cc2)C1 [Example 314, N-[(5-chloro-6-{[(2S)-4-cyclopropylmorpholin-2-yl]methoxy}pyridin-3-yl)sulfonyl]-4-(4-{[2-(4-chlorophenyl)-4,4-dimethylcyclohex-1-en-1-yl]methyl}piperazin-1-yl)-2-(1H-pyrrolo[2,3-b]pyridin-5-yloxy)benzamide] was tested. Which EC50 [1] did it give?
Its EC50 is 0.66 µM.

With CC(C)N1CCC2(CCC(c3ccc(Cl)cc3)=C(CN3CCN(c4ccc(C(=O)NS(=O)(=O)c5ccc(NCC6CCOCC6)c([N+](=O)[O-])c5)c(Oc5cnc6[nH]ccc6c5)c4)CC3)C2)CC1 [Example 266, 4-(4-{[9-(4-chlorophenyl)-3-isopropyl-3-azaspiro[5.5]undec-8-en-8-yl]methyl}piperazin-1-yl)-N-({3-nitro-4-[(tetrahydro-2H-pyran-4-ylmethyl)amino]phenyl}sulfonyl)-2-(1H-pyrrolo[2,3-b]pyridin-5-yloxy)benzamide] as the molecule, how does the EC50 [1] read?
Its EC50 is 0.00729 µM.

Which EC50 [1] does the source give for CC1(C)CCC(c2ccc(Cl)cc2)=C(CN2CCN(c3ccc(C(=O)NS(=O)(=O)c4ccc(NCC5CCOCC5)c([N+](=O)[O-])c4)c(Oc4cnc5[nH]ccc5c4)c3)CC2)C1 [Example 75, 4-(4-{[2-(4-chlorophenyl)-5,5-dimethylcyclohex-1-en-1-yl]methyl}piperazin-1-yl)-N-({3-nitro-4-[(tetrahydro-2H-pyran-4-ylmethyl)amino]phenyl}sulfonyl)-2-(1H-pyrrolo[2,3-b]pyridin-5-yloxy)benzamide] here?
Its EC50 is 0.0151 µM.

Which EC50 [1] does the source give for CC1(C)CCC(CN2CCN(c3ccc(C(=O)NS(=O)(=O)c4ccc(NCc5ccc(O)cc5)c([N+](=O)[O-])c4)c(Oc4cnc5[nH]ccc5c4)c3)CC2)=C(c2ccc(Cl)cc2)C1 [Example 185, 4-(4-{[2-(4-chlorophenyl)-4,4-dimethylcyclohex-1-en-1-yl]methyl}piperazin-1-yl)-N-({4-[(4-hydroxybenzyl)amino]-3-nitrophenyl}sulfonyl)-2-(1H-pyrrolo[2,3-b]pyridin-5-yloxy)benzamide] here?
Its EC50 is 0.0275 µM.

CC1(C)CCC(CN2CCN(c3ccc(C(=O)NS(=O)(=O)c4ccc(N[C@@H]5CCN(C6COC6)C5)c([N+](=O)[O-])c4)c(Oc4cnc5[nH]ccc5c4)c3)CC2)=C(c2ccc(Cl)cc2)C1 [Example 224, 4-(4-{[2-(4-chlorophenyl)-4,4-dimethylcyclohex-1-en-1-yl]methyl}piperazin-1-yl)-N-[(3-nitro-4-{[(3R)-1-(oxetan-3-yl)pyrrolidin-3-yl]amino}phenyl)sulfonyl]-2-(1H-pyrrolo[2,3-b]pyridin-5-yloxy)benzamide] was tested. Which EC50 [1] did it give?
The EC50 was 0.0139 µM.

With CN(C)CC(=O)N1CCO[C@@H](CNc2ccc(S(=O)(=O)NC(=O)c3ccc(N4CCN(CC5=C(c6ccc(Cl)cc6)CC(C)(C)CC5)CC4)cc3Oc3cnc4[nH]ccc4c3)cc2[N+](=O)[O-])C1 [Example 259, 4-(4-{[2-(4-chlorophenyl)-4,4-dimethylcyclohex-1-en-1-yl]methyl}piperazin-1-yl)-N-{[4-({[(2S)-4-(N,N-dimethylglycyl)morpholin-2-yl]methyl}amino)-3-nitrophenyl]sulfonyl}-2-(1H-pyrrolo[2,3-b]pyridin-5-yloxy)benzamide] as the molecule, how does the EC50 [1] read?
The EC50 was 0.000388 µM.

How did the EC50 [1] turn out when CC1(C)CCC(CN2CCN(c3ccc(C(=O)NS(=O)(=O)c4ccc(NC[C@@H]5CCCOC5)c([N+](=O)[O-])c4)c(Oc4ccc5[nH]ccc5c4)c3)CC2)=C(c2ccc(Cl)cc2)C1 [Example 21, 4-(4-{[2-(4-chlorophenyl)-4,4-dimethylcyclohex-1-en-1-yl]methyl}piperazin-1-yl)-2-(1H-indol-5-yloxy)-N-[(3-nitro-4-{[(3S)-tetrahydro-2H-pyran-3-ylmethyl]amino}phenyl)sulfonyl]benzamide] was run?
The EC50 was 0.062 µM.

What about the EC50 [2] of the same molecule?
The EC50 was 0.062 µM.

How did the EC50 [1] turn out when CN1CCC(COc2ncc(S(=O)(=O)NC(=O)c3ccc(N4CCN(CC5=C(c6ccc(Cl)cc6)CC(C)(C)CC5)CC4)cc3Oc3cnc4[nH]ccc4c3)cc2Br)CC1 [Example 47, N-({5-bromo-6-[(1-methylpiperidin-4-yl)methoxy]pyridin-3-yl}sulfonyl)-4-(4-{[2-(4-chlorophenyl)-4,4-dimethylcyclohex-1-en-1-yl]methyl}piperazin-1-yl)-2-(1H-pyrrolo[2,3-b]pyridin-5-yloxy)benzamide] was run?
Its EC50 is 0.0326 µM.

CCOC(=O)N1CCN(c2ccc(S(=O)(=O)NC(=O)c3ccc(N4CCN(CC5=C(c6ccc(Cl)cc6)CC(C)(C)CC5)CC4)cc3Oc3cnc4[nH]ccc4c3)cc2[N+](=O)[O-])CC1 [Example 222, ethyl 4-(4-{[4-(4-{[2-(4-chlorophenyl)-4,4-dimethylcyclohex-1-en-1-yl]methyl}piperazin-1-yl)-2-(1H-pyrrolo[2,3-b]pyridin-5-yloxy)benzoyl]sulfamoyl}-2-nitrophenyl)piperazine-1-carboxylate] was tested. Which EC50 [1] did it give?
The EC50 was greater than 1 µM.

With CC1(C)CCC(CN2CCN(c3ccc(C(=O)NS(=O)(=O)c4ccc(NCCCN(CC(F)(F)F)C5CC5)c([N+](=O)[O-])c4)c(Oc4cnc5[nH]ccc5c4)c3)CC2)=C(c2ccc(Cl)cc2)C1 [Example 308, 4-(4-{[2-(4-chlorophenyl)-4,4-dimethylcyclohex-1-en-1-yl]methyl}piperazin-1-yl)-N-{[4-({3-[cyclopropyl(2,2,2-trifluoroethyl)amino]propyl}amino)-3-nitrophenyl]sulfonyl}-2-(1H-pyrrolo[2,3-b]pyridin-5-yloxy)benzamide] as the molecule, how does the EC50 [1] read?
Its EC50 is 0.257 µM.

How did the EC50 [1] turn out when O=C(NS(=O)(=O)c1ccc(NCC2CCOCC2)c([N+](=O)[O-])c1)c1ccc(N2CCN(CC3=C(c4ccc(Cl)cc4)CCC(F)(F)C3)CC2)cc1Oc1cnc2[nH]ccc2c1 [Example 321, 4-(4-{[2-(4-chlorophenyl)-5,5-difluorocyclohex-1-en-1-yl]methyl}piperazin-1-yl)-N-({3-nitro-4-[(tetrahydro-2H-pyran-4-ylmethyl)amino]phenyl}sulfonyl)-2-(1H-pyrrolo[2,3-b]pyridin-5-yloxy)benzamide] was run?
Its EC50 is 0.0188 µM.

Which EC50 [1] does the source give for CC1(C)CCC(CN2CCN(c3ccc(C(=O)NS(=O)(=O)c4ccc(NCCCN5CCCC5)c([N+](=O)[O-])c4)c(Oc4cccc5[nH]c6ccccc6c45)c3)CC2)=C(c2ccc(Cl)cc2)C1 [Example 8, 2-(9H-carbazol-4-yloxy)-4-(4-{[2-(4-chlorophenyl)-4,4-dimethylcyclohex-1-en-1-yl]methyl}piperazin-1-yl)-N-({3-nitro-4-[(3-pyrrolidin-1-ylpropyl)amino]phenyl}sulfonyl)benzamide] here?
The EC50 was 0.158 µM.

CC1(C)CCC(CN2CCN(c3ccc(C(=O)NS(=O)(=O)c4cnc(OC[C@@H]5CCN(CC(F)F)C5)c(Cl)c4)c(Oc4cnc5[nH]ccc5c4)c3)CC2)=C(c2ccc(Cl)cc2)C1 [Example 281, N-[(5-chloro-6-{[(3R)-1-(2,2-difluoroethyl)pyrrolidin-3-yl]methoxy}pyridin-3-yl)sulfonyl]-4-(4-{[2-(4-chlorophenyl)-4,4-dimethylcyclohex-1-en-1-yl]methyl}piperazin-1-yl)-2-(1H-pyrrolo[2,3-b]pyridin-5-yloxy)benzamide] was tested. Which EC50 [1] did it give?
The EC50 was 0.654 µM.

O=C(NS(=O)(=O)c1ccc(NCC2CCOCC2)c([N+](=O)[O-])c1)c1ccc(N2CCN(Cc3ccccc3-c3ccc(Cl)cc3)CC2)cc1Oc1cnc2[nH]ccc2c1 [Example 1, 4-{4-[(4′-chloro-1,1′-biphenyl-2-yl)methyl]piperazin-1-yl}-N-({3-nitro-4-[(tetrahydro-2H-pyran-4-ylmethyl)amino]phenyl}sulfonyl)-2-(1H-pyrrolo[2,3-b]pyridin-5-yloxy)benzamide] was tested. Which EC50 [1] did it give?
Its EC50 is 0.712 µM.

And the EC50 [2]?
Its EC50 is 0.712 µM.

Which EC50 [1] does the source give for CC(C)N1CCC2(CCC(c3ccc(Cl)cc3)=C(CN3CCN(c4ccc(C(=O)NS(=O)(=O)c5cnc(OCC6CCOCC6)c(Cl)c5)c(Oc5cnc6[nH]ccc6c5)c4)CC3)C2)CC1 [Example 268, 4-(4-{[9-(4-chlorophenyl)-3-isopropyl-3-azaspiro[5.5]undec-8-en-8-yl]methyl}piperazin-1-yl)-N-{[5-chloro-6-(tetrahydro-2H-pyran-4-ylmethoxy)pyridin-3-yl]sulfonyl}-2-(1H-pyrrolo[2,3-b]pyridin-5-yloxy)benzamide] here?
Its EC50 is 0.0488 µM.
